Test results from patent US8722628B2, “Autophagy-inducing peptide” (priority 2012, dated 2014).

Test system: H1975 cells
Conditions: EGFR T790M

With C#Cc1cccc(Nc2ncnc3cc(OCCOC)c(OCCOC)cc23)c1 [Erlotinib] the autophagy induction was “fails to induce autophagy” and the cell killing was “fails to kill the cells”.
